Experimental data published in US20090264469A1, “NOVEL DICARBOXYLIC ACID DERIVATIVES” (BIO-PROJET, priority 2004, published 2009).

Tests used:
Human S1P1 receptor = target: T1, Human S1P1 receptor (Homo sapiens, UniProt P21453); experiment: GTP-γ-35S binding, agonist activity on S1P1 receptor; assay type: biochemical; conditions: for EC50: membranes of transfected HEK 293 or CHOK1 cells, [35S]GTP-γ-S binding; for intrinsic activity (i.a.) S1P1: relative to the maximal stimulation elicited by S1P
T1 construct: expressed in transfected cells; host or cells: HEK 293 or CHOK1 cells (membranes)
T1 sequence (P21453 whole entry): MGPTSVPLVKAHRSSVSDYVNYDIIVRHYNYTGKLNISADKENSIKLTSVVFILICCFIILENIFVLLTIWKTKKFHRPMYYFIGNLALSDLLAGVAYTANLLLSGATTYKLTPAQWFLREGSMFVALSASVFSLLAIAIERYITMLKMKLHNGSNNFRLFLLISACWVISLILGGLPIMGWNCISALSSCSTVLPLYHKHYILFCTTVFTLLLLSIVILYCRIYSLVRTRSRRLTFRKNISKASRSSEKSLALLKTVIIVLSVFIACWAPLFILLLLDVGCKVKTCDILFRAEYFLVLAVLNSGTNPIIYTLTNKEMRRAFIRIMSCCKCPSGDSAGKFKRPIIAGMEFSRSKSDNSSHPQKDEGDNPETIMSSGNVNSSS
Description: (§1) Human S1P1-5 receptor subtypes were stably expressed in HEK 293 or CHOK1 cells following transfection with corresponding plasmid constructs. Although the native cells somewhat respond to S1P, the level of expression and responsiveness of the antibiotic-resistant transfected cell lines that were selected is much higher.
(§2) When cultivated cells reached 80% confluence, they were collected and, after lysis, cell membranes were collected by centrifugation and washed in buffer containing antiproteases.
(§3) GTP-γ-35 S binding was performed using ˜5 μg protein of cell membranes suspended in 50 mM tris-HCl pH 7.5 containing 10 mM Mg Cl2, 100 mM NaCl and 10 μM GDP. The radioligand was 0.025 nM [35S] GTP-γ-S and non specific binding determined in the presence of 10 μM non-radioactive GTP-γ-S. S1P and receptor agonists enhance the specific binding whereas inverse agonists reduce it. The maximal stimulation elicited by S1P was taken as a reference to define full or partial agonism and calculate the intrinsic activity (i.a.) of compounds.

Human S1P2 receptor = target: T2, Human S1P2 receptor (Homo sapiens, UniProt O95136); experiment: GTP-γ-35S binding, agonist activity on S1P2 receptor; assay type: biochemical; conditions: for EC50: membranes of transfected HEK 293 or CHOK1 cells, [35S]GTP-γ-S binding; for intrinsic activity (i.a.) S1P2: relative to the maximal stimulation elicited by S1P
T2 construct: expressed in transfected cells; host or cells: HEK 293 or CHOK1 cells (membranes)
T2 sequence (O95136 whole entry): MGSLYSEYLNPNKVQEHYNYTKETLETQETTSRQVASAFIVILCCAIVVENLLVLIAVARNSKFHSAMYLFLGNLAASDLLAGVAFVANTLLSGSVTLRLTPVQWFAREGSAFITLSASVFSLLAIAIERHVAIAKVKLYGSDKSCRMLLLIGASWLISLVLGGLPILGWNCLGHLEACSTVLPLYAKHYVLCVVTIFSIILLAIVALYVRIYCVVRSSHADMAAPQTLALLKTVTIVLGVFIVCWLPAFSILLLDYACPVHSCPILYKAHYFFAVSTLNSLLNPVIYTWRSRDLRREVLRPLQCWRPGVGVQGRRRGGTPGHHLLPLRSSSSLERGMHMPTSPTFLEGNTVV
Description: as §1, §2, §3

Human S1P3 receptor = target: T3, Human S1P3 receptor (Homo sapiens, UniProt Q99500); experiment: GTP-γ-35S binding, agonist activity on S1P3 receptor; assay type: biochemical; conditions: for EC50: membranes of transfected HEK 293 or CHOK1 cells, [35S]GTP-γ-S binding; for intrinsic activity (i.a.) S1P3: relative to the maximal stimulation elicited by S1P
T3 construct: expressed in transfected cells; host or cells: HEK 293 or CHOK1 cells (membranes)
T3 sequence (Q99500 whole entry): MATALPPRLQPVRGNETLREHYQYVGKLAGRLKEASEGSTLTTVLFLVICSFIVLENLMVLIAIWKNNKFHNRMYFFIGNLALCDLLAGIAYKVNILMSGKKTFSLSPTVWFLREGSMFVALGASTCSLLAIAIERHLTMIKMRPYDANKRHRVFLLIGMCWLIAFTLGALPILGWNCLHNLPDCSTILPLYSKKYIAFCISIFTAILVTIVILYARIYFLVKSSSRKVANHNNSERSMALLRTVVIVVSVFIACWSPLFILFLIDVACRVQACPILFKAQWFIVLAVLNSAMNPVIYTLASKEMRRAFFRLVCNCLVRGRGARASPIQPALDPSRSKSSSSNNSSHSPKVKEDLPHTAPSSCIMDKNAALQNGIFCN
Description: as §1, §2, §3

[1] = J. Am. Soc. Nephrol., 13, 1073, 2002; cited from earlier work
circulating lymphocytes = conditions: in vivo; cited from earlier work

Row | Compound | EC50 (Human S1P1 receptor) | intrinsic activity (i.a.) S1P1 (Human S1P1 receptor) | EC50 (Human S1P2 receptor) | intrinsic activity (i.a.) S1P2 (Human S1P2 receptor) | EC50 (Human S1P3 receptor) | intrinsic activity (i.a.) S1P3 (Human S1P3 receptor) | adverse event [1] | circulating lymphocytes (circulating lymphocytes)
1 | CCCCCCCCCc1ccc(CNC2CCC(C(=O)O)(C(=O)O)C2)cc1 (centres unmarked) [Example 3, 3-(4-nonylbenzylamino)cyclopentane-1,1-dicarboxylic acid] | 6 nM | 1 | 4 nM | 1 | > 1000 nM | ~0.3 |  | 
2 | CCCCCCCCCCc1ccc(CNC2CCC(C(=O)O)(C(=O)O)C2)cc1 (centres unmarked) [Example 12, 3-(4-decylbenzylamino)cyclopentane-1,1-dicarboxylic acid] | 13 nM | 1 | 5 nM | 1 | > 1000 nM | ~0.3 |  | 
3 | CCCCCCCCc1ccc(CCC(N)(CO)CO)cc1 [FTY 720] |  |  |  |  |  |  | transient asymptomatic bradycardia | decrease
